# From patent publication US8722628B2, “Autophagy-inducing peptide” (priority 2012, dated 2014)
# Test system: H1975 cells
# Settings: EGFR T790M
compound,measurement,value
C#Cc1cccc(Nc2ncnc3cc(OCCOC)c(OCCOC)cc23)c1 [Erlotinib],autophagy induction,fails to induce autophagy
same,cell killing,fails to kill the cells
